For one data set, the system named is Mtb H37Rv strain. As to the kind of experiment: microbe, parasite or virus in culture. In kind it is cell-based, Mycobacterium tuberculosis.
The nature of data set [1]: In vitro cytotoxicity, THP-1 cell viability after 3 days. The settings on record: human, THP-1 cells. Format: cell-based.
The target of the next data set is wild-type InhA (Mycobacterium tuberculosis, UniProt P9WGR1). Nature of the data set: InhA inhibition assay. In kind it is biochemical.
The mark [2] stands for this setting: Mycobacterium tuberculosis, H37RV.
[3] abbreviates: Mycobacterium tuberculosis, H37RV, Mtb H37Rv, dual read-out (OD590 and fluorescence).
The mark [4] stands for this setting: Mtb H37Rv, dual read-out (OD590 and fluorescence).

Converted amounts (≈) assume the structure as drawn.

In general, IC50 refers to the concentration needed to halve the response being measured.

Sequence of wild-type InhA (P9WGR1 whole entry, looked up): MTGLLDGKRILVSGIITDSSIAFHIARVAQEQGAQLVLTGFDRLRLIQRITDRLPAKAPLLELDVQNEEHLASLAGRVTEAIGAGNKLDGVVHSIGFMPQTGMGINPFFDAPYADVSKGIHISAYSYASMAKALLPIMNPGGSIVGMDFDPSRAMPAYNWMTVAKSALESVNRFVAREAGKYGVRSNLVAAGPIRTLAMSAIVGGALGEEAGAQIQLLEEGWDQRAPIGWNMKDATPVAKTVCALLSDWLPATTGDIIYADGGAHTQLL

As to `O=C1c2ccccc2C(=O)N1c1nnc(-c2cccc(Br)c2)s1` [Compound 21, 2-(5-(3-Bromophenyl)-1,3,4-thiadiazol-2-yl)isoindoline-1,3-dione], the MIC against Mtb H37Rv strain (setting [2]) is > 200 µM. The 50% inhibitory concentration (IC50) in the data set on Mtb H37Rv strain (setting [3]) came to 100 µM.
For `O=C1c2ccccc2C(=O)N1c1nnc(-c2ccccc2F)s1` [Compound 25, 2-(5-(2-Fluorophenyl)-1,3,4-thiadiazol-2-yl)isoindoline-1,3-dione], in the data set with Mtb H37Rv strain (setting [2]), the MIC was > 200 µM. Besides, the half-maximal inhibitory concentration (IC50) with Mtb H37Rv strain (setting [3]) came to 133 µM.
With `Cc1cccc(-c2nnc(N3C(=O)c4ccccc4C3=O)s2)c1` [Compound 23, 2-(5-(m-Tolyl)-1,3,4-thiadiazol-2-yl)isoindoline-1,3-dione], the MIC against Mtb H37Rv strain (setting [2]) came out at 123 µM (≈ 39.5 µg/mL). In the data set on Mtb H37Rv strain (setting [3]), the half-maximal inhibitory concentration (IC50) was determined as 43 µM.
As for `O=C1c2ccccc2C(=O)N1c1nnc(-c2ccc(I)cc2)s1` [Compound 27, 2-(5-(4-Iodophenyl)-1,3,4-thiadiazol-2-yl)isoindoline-1,3-dione], in data set [1], the 50% inhibitory concentration (IC50) at 3 days was > 200 µM. Further, the values for the IC50 against wild-type InhA and in the data set with Mtb H37Rv strain (setting [3]) were 8.65 µM and 18 µM, respectively. The molecule also came in with an MIC against Mtb H37Rv strain (setting [2]) of 64 µM (≈ 27.7 µg/mL).
Turning to `O=C1c2ccccc2C(=O)N1c1ccc(Br)cn1` [Compound 14, 2-(5-Bromopyridin-2-yl)isoindoline-1,3-dione], in the data set on Mtb H37Rv strain (setting [2]), the MIC was > 200 µM. Also, in the data set with Mtb H37Rv strain (setting [3]), the IC50 came out at 90 µM.
`O=C1c2ccccc2C(=O)N1c1cccc([N+](=O)[O-])c1` [Compound 10, 2-(3-Nitrophenyl)isoindoline-1,3-dione]: the MIC in the data set on Mtb H37Rv strain (setting [2]) is > 200 µM. Besides, the IC50 in the data set on Mtb H37Rv strain (setting [3]) came to 121 µM.
Take `O=C1c2ccccc2C(=O)N1c1nnc(-c2cccc(Cl)c2)s1` [Compound 26, 2-(5-(3-Chlorophenyl)-1,3,4-thiadiazol-2-yl)isoindoline-1,3-dione]: the MIC against Mtb H37Rv strain (setting [2]) came to 192 µM (≈ 65.6 µg/mL). Further, the IC50 in the data set with Mtb H37Rv strain (setting [3]) stood at 80 µM.
Regarding `O=C1c2ccccc2C(=O)N1c1nnc(-c2ccccc2)s1` [Compound 19, 2-((5-Phenyl)-1,3,4-thiadiazol-2-yl)isoindoline-1,3-dione], the MIC in the data set with Mtb H37Rv strain (setting [2]) is > 200 µM. Also, the half-inhibitory concentration (IC50) with Mtb H37Rv strain (setting [3]) is > 200 µM.
On to `Cc1ccnc(N2C(=O)c3ccccc3C2=O)c1` [Compound 12, 2-(4-Methylpyridin-2-yl)isoindoline-1,3-dione], for which the IC50 turned out to be 160 µM in the data set on Mtb H37Rv strain (setting [4]) and 148 µM in the data set with Mtb H37Rv strain (setting [3]). In addition, in the data set on Mtb H37Rv strain (setting [2]), the MIC is > 200 µM.
In the case of `Cc1ccccc1N1C(=O)c2ccccc2C1=O` [Compound 3, 2-(o-Tolyl)isoindoline-1,3-dione], the MIC with Mtb H37Rv strain (setting [2]) was 194 µM (≈ 46 µg/mL). Moreover, the IC50 in the data set on Mtb H37Rv strain (setting [3]) was found to be 68 µM.
As to `O=C1c2ccccc2C(=O)N1c1ccc(F)c(Cl)c1` [Compound 4, 2-(3-Chloro-4-fluorophenyl)isoindoline-1,3-dione], the MIC against Mtb H37Rv strain (setting [2]) was determined as 186 µM (≈ 51.3 µg/mL). The half-maximal inhibitory concentration (IC50) with Mtb H37Rv strain (setting [3]) amounted to 64 µM.
Take `O=C1c2ccccc2C(=O)N1c1ccc(Br)cc1` [Compound 8, 2-(4-Bromophenyl)isoindoline-1,3-dione]: the half-inhibitory concentration (IC50) at 3 days in data set [1] was > 150 µM. The molecule also showed an MIC against Mtb H37Rv strain (setting [2]) of 102 µM (≈ 30.8 µg/mL). Moreover, the concentration for half-maximal inhibition (IC50) with Mtb H37Rv strain (setting [3]) was 31 µM.
In the case of `O=C(NN1C(=O)c2ccccc2C1=O)c1ccc(O)cc1` [Compound 20, N-(1,3-Dioxoisoindoline-2-yl)-4-hydroxybenzamide], the MIC with Mtb H37Rv strain (setting [2]) is > 200 µM. For the same molecule, in the data set on Mtb H37Rv strain (setting [3]), the half-inhibitory concentration (IC50) was found to be 101 µM.
In the case of `O=C1c2ccccc2C(=O)N1c1ccc(F)cc1` [Compound 2, 2-(4-Fluorophenyl)isoindoline-1,3-dione], in the data set with Mtb H37Rv strain (setting [2]), the MIC is > 200 µM. Moreover, the IC50 in the data set on Mtb H37Rv strain (setting [3]) is 197 µM.
For `NNC(=O)c1ccncc1` [Isoniazid, reference compound], the MIC in the data set with Mtb H37Rv strain (setting [2]) came to 0.38 µM (≈ 0.0521 µg/mL). The IC50 in the data set with Mtb H37Rv strain (setting [3]) is 0.15 µM.
As for `O=C1c2ccccc2C(=O)N1c1cccc(Cl)c1` [Compound 7, 2-(3-Chlorophenyl)isoindoline-1,3-dione], the concentration for half-maximal inhibition (IC50) at 3 days in data set [1] is > 150 µM. This molecule also yielded an MIC with Mtb H37Rv strain (setting [2]) of 96 µM (≈ 24.7 µg/mL). In addition, the concentration for half-maximal inhibition (IC50) in the data set on Mtb H37Rv strain (setting [3]) was 26 µM.
In turn, `COc1ccccc1-c1nnc(N2C(=O)c3ccccc3C2=O)s1` [Compound 22, 2-(5-(2-Methoxyphenyl)-1,3,4-thiadiazol-2-yl)isoindoline-1,3-dione] displayed an MIC with Mtb H37Rv strain (setting [2]) of 180 µM (≈ 60.7 µg/mL). In the data set with Mtb H37Rv strain (setting [3]), the IC50 stood at 58 µM.
For the molecule `O=C(O)CN1C(=O)c2ccccc2C1=O` [Compound 11, 2-(1,3-Dioxoisoindolin-2-yl)acetic Acid], the MIC against Mtb H37Rv strain (setting [2]) was determined as 164 µM (≈ 33.6 µg/mL). For the same molecule, in the data set on Mtb H37Rv strain (setting [3]), the IC50 is 55 µM.
In the same order, the values of `O=C1c2ccccc2C(=O)N1c1nnc(Cc2ccccc2)s1` [Compound 24, 2-(5-Benzyl--1,3,4-thiadiazol-2-yl)isoindoline-1,3-dione] are > 200 µM and > 200 µM.
`Cc1ccc(N2C(=O)c3ccccc3C2=O)nc1` [Compound 13, 2-(5-Methylpyridin-2-yl)isoindoline-1,3-dione]: the IC50 in the data set on Mtb H37Rv strain (setting [4]) amounted to 148 µM; in the data set on Mtb H37Rv strain (setting [3]), 160 µM. Also, the MIC against Mtb H37Rv strain (setting [2]) is > 200 µM.
With `Cc1nnc(N2C(=O)c3ccccc3C2=O)s1` [Compound 29, 2-(5-Methyl-1,3,4-thiadiazol-2-yl)isoindolin-1,3-dione], in the data set on Mtb H37Rv strain (setting [2]), the MIC is > 200 µM. Also, the concentration for half-maximal inhibition (IC50) with Mtb H37Rv strain (setting [3]) worked out at 100 µM.
With `Cc1cccc(N2C(=O)c3ccccc3C2=O)c1` [Compound 5, 2-(m-Tolyl)isoindoline-1,3-dione], the IC50 at 3 days in data set [1] was > 150 µM. Besides, the MIC in the data set on Mtb H37Rv strain (setting [2]) came to 100 µM (≈ 23.7 µg/mL). Further, the half-maximal inhibitory concentration (IC50) in the data set on Mtb H37Rv strain (setting [3]) stood at 29 µM.
For `O=C1c2ccccc2C(=O)N1c1ccc(Cl)cc1` [Compound 6, 2-(4-Chlorophenyl)isoindoline-1,3-dione] the same measures were > 150 µM, 94 µM (≈ 24.2 µg/mL) and 28 µM.
On to “2-(4-Methyl-2-oxo-2H-chromen-6-yl)isoindoline-1,3-dione [Compound 30]”, for which, in the data set on Mtb H37Rv strain (setting [4]), the concentration for half-maximal inhibition (IC50) is > 200 µM and the MIC was > 200 µM.
Regarding `O=C1c2ccccc2C(=O)N1c1nnc(-c2ccccc2[N+](=O)[O-])s1` [Compound 28, 2-(5-(2-Nitrophenyl)-1,3,4-thiadiazol-2-yl)isoindoline-1,3-dione], the MIC against Mtb H37Rv strain (setting [2]) was > 200 µM. Further, the half-inhibitory concentration (IC50) in the data set on Mtb H37Rv strain (setting [3]) came to 171 µM.
Take `COc1ccc(-c2nnc(N3C(=O)c4ccccc4C3=O)s2)cc1` [Compound 16, 2-(5-(4-Methoxyphenyl)-1,3,4-thiadiazol-2-yl)isoindoline-1,3-dione]: the MIC in the data set on Mtb H37Rv strain (setting [2]) is 182 µM (≈ 61.4 µg/mL). The IC50 in the data set with Mtb H37Rv strain (setting [3]) came to 62 µM.

Source of the values: paper PMC9244950 (ACS Omega, 2022).
